{"source": "patent US20260125374A1", "about": "“PI3K-ALPHA INHIBITORS AND METHODS OF MAKING AND USING THE SAME” (Relay Therapeutics, Inc., priority 2021, published 2026)", "assay": "Polymorph screening (equilibration, anti-solvent, slow evaporation, slow cooling, temperature cycling, heating-cooling; XRPD and SFC)", "format": "physicochemical", "description": "This polymorph screening program of compound I-1 free form was performed with two batches of the pure enantiomer. Both batches are crystalline and is assigned as Form A. The polymorphic behaviors of the enantiomer were investigated by equilibration at 25° C. and 50° C., equilibration under a temperature cycle, crystallization from hot saturated solutions by slow cooling, slow evaporation, precipitation by addition of anti-solvent, and DSC heating-cooling cycle experiments. Relative stability of identified polymorphs was investigated by competitive slurry experiments.\nAbout 50 mg of I-1 Form A was weighed into a 2 mL glass vial and equilibrated in suitable amount of solvents (pretreated by molecular sieves) at 25° C. for 2 weeks with a stirring plate and with protection from light. Obtained suspensions were filtered with 0.45 μm nylon membrane and the solid parts (wet cake) were investigated by XRPD. When differences were observed, additional investigations were performed (e.g. DSC, TGA, ^1H-NMR, SFC).\nAbout 50 mg of I-1 Form A was weighed into 2 mL glass vials and equilibrated in suitable amount of solvents (pretreated by molecular sieves) at 50° C. for 10 days with a stirring plate and with protection from light. Obtained suspensions were filtered with 0.45 μm nylon membrane and the solid parts (wet cake) were investigated by XRPD. When differences were observed, additional investigation was performed (e.g. DSC, TGA, ^1H-NMR, SFC).\nI-1 Form A was dissolved in a good solvent. […] The solvents used were pretreated by molecular sieve. Precipitates were collected by filtration. The solid part (wet cake) was investigated by XRPD. […] When differences were observed, additional investigations were performed (e.g. DSC, TGA, ^1H-NMR, SFC).\nBased on approximate solubility results, I-1 Form A was dissolved in suitable amount of solvents (pretreated by molecular sieves). Obtained solutions were filtered by 0.45 μm nylon filter. […] Solid residues were examined for their polymorphic form. When differences were observed, additional investigations were performed (e.g. DSC, TGA, ^1H-NMR, SFC).\nApproximate 50 mg of batch I-1 Form A were dissolved in the minimal amount of selected solvents (without pretreatment by molecular sieves) at 50° C. Obtained solutions were filtered by 0.45 μm nylon filter. […] Precipitates were collected by filtration. The solid parts (wet cake) were investigated by XRPD. When differences were observed, additional investigations were performed (e.g. DSC, TGA, ^1H-NMR, SFC). When no precipitation was obtained or only a few solids were obtained, the solutions were placed at 5° C. for crystallization.\nAbout 50 mg of I-1 Form A was equilibrated in different solvents (pretreated by molecular sieves) under a temperature cycle between 5° C. to 50° C. at a heating/cooling rate of 0.2° C./min for 10 cycles and with protection from light. After 10 cycles, precipitates were collected at 5° C. by filtration. The solid parts (wet cake) were investigated by XRPD. When differences were observed, additional investigations were performed (e.g. DSC, TGA, 1H-NMR, SFC).\nPolymorphic behavior of I-1 Form A was investigated by two different heating-cooling cycles of DSC. Cycle 1:30° C. to 280° C. at 10° C./min; 280° C. to −20° C. at 20° C./min; reheat to 300° C. at 10° C./min. Cycle 2:30° C. to 280° C. at 10° C./min; 280° C. to-20° C. at 2° C./min; reheat to 300° C. at 10° C./min.", "key": {"[1]": {"settings": "anti-solvent Acetone / Heptane(2V), added III-1 Form D seeds, stirred for 1 h"}, "[2]": {"settings": "anti-solvent MeOH / Water(0.1V), III-1 Form A seeds, stirred for 2 days"}, "[3]": {"settings": "anti-solvent THF / MTBE(1.5V), added I-1 Form C seeds, stirred for 2 h"}}, "note": "Marks after values point to notes of the source that are not given here.", "data": [{"smiles": "N#Cc1c(-c2cc(NC(=O)c3cc(F)cc(C(F)(F)F)c3)c3c(c2)C(=O)N[C@H]3c2cc(F)ccc2Cl)ccc2ncnn12", "note": "[Compound I-1, (R)-N-(3-(2-chloro-5-fluorophenyl)-6-(5-cyano-[1,2,4]triazolo[1,5-a]pyridin-6-yl)-1-oxoisoindolin-4-yl)-3-fluoro-5-(trifluoromethyl)benzamide]", "values": [{"measurement": "XRPD", "setting": "[1]", "value": "I-1 Form A"}, {"measurement": "ee %(SFC)", "setting": "[1]", "value": "ee %(SFC): 94.9%*"}, {"measurement": "ee %(SFC)", "setting": "anti-solvent MeOH / Water(0.1V), III-1 Form A seeds, stirred for 2 h", "value": "ee %(SFC): 98.8%*"}, {"measurement": "XRPD", "setting": "[2]", "value": "I-1 Form A"}, {"measurement": "ee %(SFC)", "setting": "[2]", "value": "ee %(SFC): 99.2%*"}, {"measurement": "XRPD", "setting": "[3]", "value": "I-1 Form C"}, {"measurement": "ee %(SFC)", "setting": "[3]", "value": "ee %(SFC): 99.5%*"}, {"measurement": "XRPD", "setting": "anti-solvent precipitation at 25° C.: Acetone / Heptane(2V)", "value": "I-1 Form A"}, {"measurement": "XRPD", "setting": "anti-solvent precipitation at 25° C.: Acetone / MTBE(4V)", "value": "I-1 Form A"}, {"measurement": "XRPD", "setting": "anti-solvent precipitation at 25° C.: MeOH / MTBE(4V), stirred at 25° C. for 23 days", "value": "I-1 Form E"}, {"measurement": "Comments (outcome)", "setting": "anti-solvent precipitation at 25° C.: MeOH / Toluene(4V)", "value": "Clear solution"}, {"measurement": "XRPD", "setting": "anti-solvent precipitation at 25° C.: THF / Heptane(1.5V)", "value": "I-1 Form C"}, {"measurement": "XRPD", "setting": "anti-solvent precipitation at 25° C.: THF / MTBE(4V)", "value": "I-1 Form C"}, {"measurement": "ee %(SFC)", "setting": "anti-solvent precipitation: MeOH / MTBE(4V), stirred at 25° C. for 23 days, SFC immediately after preparation", "value": "ee % (SFC): 2.7%*"}, {"measurement": "ee %(SFC)", "setting": "anti-solvent precipitation: THF / MTBE(4V), SFC immediately after preparation", "value": "ee % (SFC): 100.0%*"}, {"measurement": "racemization in organic solvents (free form polymorph study)", "setting": "certain organic solvents, including methanol and IPAc", "value": "easily racemized"}, {"measurement": "XRPD", "setting": "equilibration at 25° C. for 2 weeks in 1,4-Dioxane", "value": "I-1 Form A"}, {"measurement": "XRPD", "setting": "equilibration at 25° C. for 2 weeks in 2-MeTHF", "value": "I-1 Form A"}, {"measurement": "XRPD", "setting": "equilibration at 25° C. for 2 weeks in ACN/water(90:10, v/v) a.w. 0.9", "value": "I-1 + I-2 mixture"}, {"measurement": "ee %(SFC)", "setting": "equilibration at 25° C. for 2 weeks in ACN/water(90:10, v/v), SFC immediately after preparation", "value": "ee % (SFC): 89.6%*"}, {"measurement": "XRPD", "setting": "equilibration at 25° C. for 2 weeks in Acetone", "value": "I-1 + I-2 mixture"}, {"measurement": "XRPD", "setting": "equilibration at 25° C. for 2 weeks in Acetone/water(60:40, v/v) a.w. 0.8", "value": "I-1 + I-2 mixture"}, {"measurement": "XRPD", "setting": "equilibration at 25° C. for 2 weeks in Acetonitrile", "value": "I-1 Form A"}, {"measurement": "XRPD", "setting": "equilibration at 25° C. for 2 weeks in Benzyl alcohol", "value": "I-1 Form A"}, {"measurement": "XRPD", "setting": "equilibration at 25° C. for 2 weeks in Dichloromethane", "value": "I-1 Form A"}, {"measurement": "XRPD", "setting": "equilibration at 25° C. for 2 weeks in Ethanol", "value": "I-1 Form A"}, {"measurement": "XRPD", "setting": "equilibration at 25° C. for 2 weeks in Ethyl acetate", "value": "I-1 Form A"}, {"measurement": "XRPD", "setting": "equilibration at 25° C. for 2 weeks in Isopropyl acetate", "value": "I-1 Form A"}, {"measurement": "XRPD", "setting": "equilibration at 25° C. for 2 weeks in MeOH/water(55:45, v/v) a.w. 0.7", "value": "I-1 Form A"}, {"measurement": "XRPD", "setting": "equilibration at 25° C. for 2 weeks in Methanol", "value": "I-1 + I-2 mixture"}, {"measurement": "XRPD", "setting": "equilibration at 25° C. for 2 weeks in Methyl ethyl ketone", "value": "I-1 Form A"}, {"measurement": "XRPD", "setting": "equilibration at 25° C. for 2 weeks in THF/water(85:15, v/v) a.w. 0.9, target concentration 510 mg/mL", "value": "III-1 Form B"}, {"measurement": "XRPD", "setting": "equilibration at 25° C. for 2 weeks in Tetrahydrofuran", "value": "I-1 Form A"}, {"measurement": "XRPD", "setting": "equilibration at 25° C. for 2 weeks in Water", "value": "I-1 + I-2 mixture"}, {"measurement": "XRPD", "setting": "equilibration at 25° C. for 2 weeks in t-Butyl methyl ether", "value": "I-1 Form A"}, {"measurement": "XRPD (4 days)", "setting": "equilibration at 25° C. in THF/water(85:15, v/v) a.w. 0.9, added III-1 Form B seeds", "value": "I-1 + II-1 mixture"}, {"measurement": "ee %(SFC)", "setting": "equilibration at 25° C. in THF/water(85:15, v/v), 4 days, added III-1 Form B seeds", "value": "ee %(SFC): 93.8%*"}, {"measurement": "XRPD", "setting": "equilibration at 50° C. for 10 days in 1,4-Dioxane", "value": "I-1 Form B"}, {"measurement": "ee %(SFC)", "setting": "equilibration at 50° C. for 10 days in 1,4-Dioxane, SFC immediately after preparation", "value": "ee % (SFC): 100.0%*"}, {"measurement": "XRPD", "setting": "equilibration at 50° C. for 10 days in ACN/water(80:20, v/v) a.w. 0.9", "value": "III-1 Form A"}, {"measurement": "ee %(SFC)", "setting": "equilibration at 50° C. for 10 days in ACN/water(80:20, v/v), SFC immediately after preparation", "value": "ee % (SFC): 50.7%*"}, {"measurement": "XRPD", "setting": "equilibration at 50° C. for 10 days in Acetone", "value": "I-1 Form A"}, {"measurement": "XRPD", "setting": "equilibration at 50° C. for 10 days in Acetone/water(60:40, v/v) a.w. 0.8", "value": "III-1 Form C"}, {"measurement": "ee %(SFC)", "setting": "equilibration at 50° C. for 10 days in Acetone/water(60:40, v/v), SFC immediately after preparation", "value": "ee % (SFC): 56.9%*"}, {"measurement": "XRPD", "setting": "equilibration at 50° C. for 10 days in Acetonitrile", "value": "I-1 Form A"}, {"measurement": "XRPD", "setting": "equilibration at 50° C. for 10 days in Anisole", "value": "I-1 Form A"}, {"measurement": "XRPD", "setting": "equilibration at 50° C. for 10 days in EtOH/water(50:50, v/v) a.w. 0.9", "value": "III-1 Form A"}, {"measurement": "ee %(SFC)", "setting": "equilibration at 50° C. for 10 days in EtOH/water(50:50, v/v), SFC after preparation for about 12 h", "value": "ee % (SFC): 75.0%#;"}, {"measurement": "ee %(SFC)", "setting": "equilibration at 50° C. for 10 days in EtOH/water(50:50, v/v), SFC immediately after preparation", "value": "ee % (SFC): 76.9%*,"}, {"measurement": "XRPD", "setting": "equilibration at 50° C. for 10 days in Ethanol", "value": "I-1 Form A"}]}]}
